Numbered stars: 1 amine (or outer) side, 2 acyl side, 3 side chain; on linkers, the order of the positions; unused ones are H or OH. Square brackets hold non-standard residues; d marks the D form. Peptide text beside a SMILES is read from it. * marks the point of attachment. ξ: configuration not given here. X1 = N=C1NCC(C(O)C(N[*:1])C(=O)[*:2])N1C1OC(CO)C(O)C(O)C1O; ξEnduracididine(βξ-OH,4'ξ) = N=C1NCC(C(O)C(N)C(=O)O)N1; X2 = OCC1OC(OC2C(CO)OC(*)C(O)C2O)C(O)C(O)C1O; ξPhe(βξ-Me) = CC(c1ccccc1)C(N)C(=O)O

Experimental findings from patent EP1399176B1, “SUBSTANTIALLY PURE GLYCOPEPTIDE ANTIBIOTICS AC-98-1; AC-98-2; AC-98-3; AC-98-4 AND AC-98-5” (Wyeth Holdings Corporation, priority 2001, dated 2002) are described below.

Common to all, as to assay: in vitro antibacterial activity, agar dilution method (MIC)
Common to all, as to type: cell-based
Holding throughout (design): unit not given here
Holding throughout (conditions): Mueller-Hinton agar containing 5% sheep blood, 18 hours incubation

The test system of assay [1] is Pseudomonas aeruginosa (ATCC 27853). The protocol:
(§1) The in vitro antibacterial activity of substantially pure glycopeptide antibiotics AC-98-1, AC-98-2, AC-98-3, AC-98-4, and AC-98-5 from Examples 2 and 3 is determined against a spectrum of bacteria by a standard agar dilution method. Mueller-Hinton agar containing 5% sheep blood and two-fold decreasing concentrations of substantially pure glycopeptide antibiotics AC-98-1, AC-98-2, AC-98-3, AC-98-4, and AC-98-5 from Examples 2 and 3 are poured into petri dishes. The agar surfaces are inoculated with 1 to 5 X 10^4 colony forming units of bacteria by means of a Steers replicating device. The lowest concentration of antibiotic that inhibited the growth of a bacterial strain after 18 hours incubation is recorded as the minimal inhibitory concentration for that strain. Table II. In vitro antibacterial activity of substantially pure antibiotics AC-98-1, AC-98-2, AC-98-3, AC-98-4, and AC-98-5 from Examples 2 and 3

In assay [2] the test system is Morganella morganii (VGH 84-11). The protocol: as §1
The next assay concerns Escherichia coli (J2175). The protocol: as §1
For assay [3], the system named is Enterococcus faecalis (ID-1829). The protocol:
as §1

In assay [4] the test system is Enterococcus faecium (12202). The protocol: as §1
Assay [5] deals with Enterococcus faecalis (ID-2131). The protocol:
as §1

The subject of assay [6] is Enterococcus faecalis (ATCC 29212). The protocol:
as §1

Assay [7] has as its system Staph Coagulase Neg (4615). The protocol:
as §1

Assay [8] deals with Staphylococcus aureus (ID-2371). The protocol: as §1
Assay [9] has as its system Enterococcus faecium (ID-3953). The protocol:
as §1

Assay [10] concerns Enterococcus faecium (ID-3301). The protocol: as §1
Assay [11] deals with Bacillus subtilis (Bacto). The protocol:
as §1

In assay [12] the test system is Staphylococcus aureus (NEMC-89-4). The protocol:
as §1

In assay [13] the test system is Staphylococcus aureus (ATCC 29213). The protocol:
as §1

Assay [14] has as its system Staphylococcus hemolyticus (ID-4061). The protocol: as §1
In assay [15] the test system is Staph Coagulase Neg (ID-3276). The protocol:
as §1

Assay [16] has as its system Staphylococcus aureus (ID-4379). The protocol:
as §1

Assay [17] relates to Staphylococcus aureus (ID-2727). The protocol: as §1
For assay [18], the system named is Staphylococcus aureus (SMITH). The protocol:
as §1

Assay [19] has as its system Enterococcus faecium (ID-4133). The protocol:
as §1

Assay [20] has as its system Staphylococcus aureus (ID-3105). The protocol: as §1

For the compound `CC(C)CC(=O)OC1C(O)C(CO)OC(OC2C(CO)OC(Oc3ccc(CC4NC(=O)C(C(C)c5ccccc5)NC(=O)CNC(=O)C(CO)NC(=O)C(C(O)C5CNC(=N)N5C5OC(CO)C(O)C(O)C5O)NC(=O)C(C(O)C5CNC(=N)N5)NC4=O)cc3)C(O)C2O)C1O` (stereo not drawn) [AC-98-4], the MIC is recorded as above 128 in assay [1], above 128 in assay [2] and 128 against Escherichia coli (J2175).
Take `CC(c1ccccc1)C1NC(=O)CNC(=O)C(CO)NC(=O)C(C(O)C2CNC(=N)N2C2OC(CO)C(O)C(O)C2O)NC(=O)C(C(O)C2CNC(=N)N2)NC(=O)C(Cc2ccc(O)cc2)NC1=O` (stereo not drawn) [AC-98-2] (cyclo(G[ξPhe(βξ-Me)]Y[ξEnduracididine(βξ-OH,4'ξ)][X1]S); configuration not given here): the MIC in assay [3] is recorded as 128; in [1], above 128; in assay [2], above 128; in assay [4], 128; in assay [5], above 128; in [6], above 128. The MIC is recorded as 128 in assay [7]; 128 in [8]; 128 in assay [9]; above 128 in assay [10]; above 128 in assay [11].
In the case of `CC(C)CC(=O)OC1C(CO)OC(OC2C(CO)OC(Oc3ccc(CC4NC(=O)C(C(C)c5ccccc5)NC(=O)CNC(=O)C(CO)NC(=O)C(C(O)C5CNC(=N)N5C5OC(CO)C(O)C(O)C5O)NC(=O)C(C(O)C5CNC(=N)N5)NC4=O)cc3)C(O)C2O)C(O)C1O` (stereo not drawn) [AC-98-5], the MIC in [1] and in assay [2] was above 128 each time.
For the compound `CC(C)CC(=O)OC1C(OC2C(CO)OC(Oc3ccc(CC4NC(=O)C(C(C)c5ccccc5)NC(=O)CNC(=O)C(CO)NC(=O)C(C(O)C5CNC(=N)N5C5OC(CO)C(O)C(O)C5O)NC(=O)C(C(O)C5CNC(=N)N5)NC4=O)cc3)C(O)C2O)OC(CO)C(O)C1O` (stereo not drawn) [AC-98-3], the MIC was above 128 in [1], above 128 in [2] and 128 in assay [5].
As for `CC(c1ccccc1)C1NC(=O)CNC(=O)C(CO)NC(=O)C(C(O)C2CNC(=N)N2C2OC(CO)C(O)C(O)C2O)NC(=O)C(C(O)C2CNC(=N)N2)NC(=O)C(Cc2ccc(OC3OC(CO)C(OC4OC(CO)C(O)C(O)C4O)C(O)C3O)cc2)NC1=O` (stereo not drawn) [AC-98-1] (cyclo(G[ξPhe(βξ-Me)]Y(X2)[ξEnduracididine(βξ-OH,4'ξ)][X1]S); configuration not given here), the MIC is listed as above 128 in assay [12]; 128 in assay [13]; above 128 in [3]; above 128 in assay [1]; 128 in assay [14]; 128 in assay [15]. In addition, the MIC is recorded as above 128 in assay [2]; above 128 in assay [4]; 128 in assay [16]; above 128 in [17]; above 128 in assay [5]; above 128 in [6]. For the same compound, the MIC in [7] is reported as above 128; in assay [8], above 128; in assay [9], above 128; in [18] it was 128; in assay [10], above 128; in [11], above 128. Besides, the MIC in assay [19] and in assay [20] was 128 throughout.
